Experimental data from patent publication US10401361B2, “Intracellular organelle peptide targeted enzyme substrates” (Marker Gene Technologies, Inc., priority 2009, dated 2019).

Test system: mannosidase
Experiment: Staining with targeted mannosidase substrates after incubation with mannosidase inhibitor
Assay type: cell-based, human
Conditions: 100 uM inhibitor, 1 day (Golgi) or 5 days (ER); substrate 20 uM, 4 hours; AG06173, FIG. 2
Experimental: Normal, healthy human lung fibroblasts (Cell line AG06173, Coriell Institute for Medical Research, Camden, N.J.) were prepared according to example 17 and plated in an optical bottom 96 well plate at 1×10^4 cells/mL.
Cells were then incubated at 37° C. and 5% CO2 in complete EMEM and incubated for 1 (Golgi) or 5 days (ER) at 37° C., 5% CO2 with or without the mannosidase inhibitor swainsonine at 100 uM. The appropriate targeted substrate for staining either the ER or Golgi was then applied at a final concentration of 20 uM and incubated for 4 hours at 37° C., 5% CO2.
Following incubation the cells were washed in PBS and bathed in Opti-Klear™ Imaging Buffer (Marker Gene Technologies, Inc Eugene Oreg.) with or without nuclear stain Hoechst 33342. Cells were then imaged on an EVOS Auto-FL fluorescence microscope (Life Technologies) fitted with a TexasRed™ light cube.

## O[C@H]1[C@H]2[C@H](O)CCCN2C[C@H]1O [swainsonine]
  effect on mannosidase activity seen by targeted substrate staining: reduction in enzyme activity
